Experimental data as given in PMC5355811 (Nature Communications, 2017).

Tests used:
Format in all cases: cell-based
[1] = system: Ba/F3 cells of EGFR-C797S/T790M/del19; assay: Drug sensitivity screening at 100 nM, Ba/F3 EGFR-C797S/T790M/del19; conditions: Mus musculus, BaF3, 72 h, 100 nM inhibitor, 72 h, DMSO = 100; mean of three independent experiments (Fig. 1a data)
Description: (§1) After the incubation, cell viability was measured using CellTiter-Glo assay. The relative cell viability was calculated as a ratio of each value to that of the DMSO control.

[2] = system: Ba/F3 cells of EGFR-del19; assay: Drug sensitivity screening at 100 nM, Ba/F3 EGFR-del19; conditions: 72 h, DMSO = 100; for Relative cell viability (% of DMSO control) in del19 Ba/F3 cells: 100 nM; for viability at 0.1 µM: Mus musculus, BaF3, 72 h, 100 nM inhibitor, mean of three independent experiments (Fig. 1a data), read-out: Relative cell viability (ratio to DMSO control), del19
Description: as §1

[3] = system: Ba/F3 cells of EGFR-T790M/del19; assay: Drug sensitivity screening at 100 nM, Ba/F3 EGFR-T790M/del19; conditions: 72 h, DMSO = 100; for Relative cell viability (% of DMSO control): 100 nM; for viability at 0.1 µM: Mus musculus, BaF3, 72 h, 100 nM inhibitor, mean of three independent experiments (Fig. 1a data), read-out: Relative cell viability (ratio to DMSO control), del19/T790M
Description: as §1

| Compound | viability at 0.1 µM [1] | Relative cell viability (% of DMSO control) in del19 Ba/F3 cells ([2]; experiment 1) | Relative cell viability (% of DMSO control) in del19 Ba/F3 cells ([2]; experiment 2) | Relative cell viability (% of DMSO control) in del19 Ba/F3 cells ([2]; experiment 3) | viability at 0.1 µM [2] | Relative cell viability (% of DMSO control) ([3]; experiment 1) | Relative cell viability (% of DMSO control) ([3]; experiment 2) | Relative cell viability (% of DMSO control) ([3]; experiment 3) | viability at 0.1 µM [3] |
| --- | --- | --- | --- | --- | --- | --- | --- | --- | --- |
| CO[C@H]1C[C@@H]2CC[C@@H](C)[C@@](O)(O2)C(=O)C(=O)N2CCCC[C@H]2C(=O)O[C@H]([C@H](C)C[C@@H]2CC[C@@H](O)[C@H](OC)C2)CC(=O)[C@H](C)/C=C(\C)[C@@H](O)[C@@H](OC)C(=O)[C@H](C)C[C@H](C)/C=C/C=C/C=C/1C [Rapamycin, rapamycin] | 27.6% | 26.4621 | 39.8271 | 36.4731 | 34.3% | 30.0228 | 36.7261 | 31.8573 | 32.9% |
| COc1cc(N2CCC(N3CCN(C)CC3)CC2)ccc1Nc1ncc(Cl)c(Nc2ccccc2S(=O)(=O)C(C)C)n1 [TAE684] | 110% | – | – | – | 105% | – | – | – | 98.1% |
| COc1cc2c(Oc3ccc(NC(=O)C4(C(=O)Nc5ccc(F)cc5)CC4)cc3F)ccnc2cc1OCCCN1CCOCC1 [Foretinib, foretinib] | 135% | 89.6065 | 99.5833 | 99.8956 | 96.4% | 105.61 | 122.653 | 104.986 | 111% |
| CCCS(=O)(=O)Nc1ccc(F)c(C(=O)c2c[nH]c3ncc(-c4ccc(Cl)cc4)cc23)c1F [Vemurafenib, vemurafenib] | 96.8% | 102.039 | 116.573 | 106.065 | 108% | 92.0888 | 107.966 | 104.772 | 102% |
| Nc1ncnc2c1c(-c1cccc(OCc3ccccc3)c1)cn2[C@H]1C[C@@H](CN2CCC2)C1 [AEW541] | 132% | 86.142 | 111.013 | 118.474 | 105% | – | – | – | 102% |
| COC(=O)c1ccc2c(c1)NC(=O)/C2=C(\Nc1ccc(N(C)C(=O)CN2CCN(C)CC2)cc1)c1ccccc1 [BIBF1120] | 108% | 91.4241 | 97.5116 | 102.157 | 97% | – | – | – | 91.1% |
| CS(=O)(=O)N1CCN(Cc2cc3nc(-c4cccc5[nH]ncc45)nc(N4CCOCC4)c3s2)CC1 [GDC0941] | 66.1% | 34.6965 | 39.6485 | 45.9129 | 40.1% | 45.3105 | 67.5344 | 51.7458 | 54.9% |
| Cc1[nH]c(/C=C2\C(=O)Nc3ccc(S(=O)(=O)Cc4c(Cl)cccc4Cl)cc32)c(C)c1C(=O)N1CCC[C@@H]1CN1CCCC1 [PHA665752] | 136% | 109.731 | 119.895 | 113.452 | 114% | – | – | – | 110% |
